Test system: Wistar rats, MIA osteoarthritis model
Assay: Monosodium iodoacetate induced osteoarthritis in rats
Format: in vivo, rat
Protocol: Monosodium iodoacetate (MIA) osteoarthritis model was performed at Pharmenterprises, Russia according to the known procedure[32] and approved by Ethics Committee of Pharmenterprises. Male 10 week old Wistar rats were divided into eight groups: negative control (#1), positive control (#2) and six treatment groups (#3–8), ten rats in each group. Group #1 was left intact while rats in groups #2–8 were anesthetized on the day 0 with intraperitoneal injection of Zoletil and Xylazine mixture and given a single intra-articular injection of MIA through the infrapatellar ligament of the right knee. Rats were treated as follows: (#1, #2) 0.5% solution of methylcellulose in PBS (pH = 3) as vehicle control, (#3, #5) 100 mg/kg MT-SYK-03, (#4, #6) 500 mg/kg MT-SYK-03, (#7) 50 mg/kg nalgesin and (#8) 0.1 mg/kg zoledronic acid. Rats in groups #1–4 received treatment intragastrically QD, 25 and 1 h before the MIA injection, and then daily until the end of the study on the day 28. Rats in groups #5–6 received treatment intragastrically QD from the day 7 until the end of the study. Rats in group #7 were treated QD starting on the day 14 and until the end of the study. Finally, rats in group #8 were treated subcutaneously immediately after the MIA injection and then every third day until the study end. Disease progression was monitored by measuring mechanical hyperalgesia, mechanical allodynia and grip strength of hind paws on the days 14, 21, and 28, just before the treatment, and 1, 3, 6 h after it.

[1] = MT-SYK-03 100 mg/kg, −1–28 days QD, 21 day, 1 hour after admin.
[2] = MT-SYK-03 100 mg/kg, −1–28 days QD, 21 day, 3 hours after admin.
[3] = MT-SYK-03 100 mg/kg, −1–28 days QD, 28 day, 1 hour after admin.
[4] = MT-SYK-03 100 mg/kg, −1–28 days QD, 28 day, 3 hours after admin.
[5] = MT-SYK-03 500 mg/kg, 7–28 days QD, 14 day, 1 hour after admin.
[6] = MT-SYK-03 500 mg/kg, 7–28 days QD, 14 day, 3 hours after admin.
[7] = MT-SYK-03 500 mg/kg, 7–28 days QD, 21 day, 1 hour after admin.
[8] = MT-SYK-03 500 mg/kg, 7–28 days QD, 21 day, 3 hours after admin.
[9] = MT-SYK-03 500 mg/kg, 7–28 days QD, 28 day, 1 hour after admin.
[10] = MT-SYK-03 500 mg/kg, 7–28 days QD, 28 day, 3 hours after admin.
[11] = MT-SYK-03 500 mg/kg, −1–28 days QD, 14 day, 1 hour after admin.
[12] = MT-SYK-03 500 mg/kg, −1–28 days QD, 14 day, 3 hours after admin.
[13] = MT-SYK-03 500 mg/kg, −1–28 days QD, 21 day, 1 hour after admin.
[14] = MT-SYK-03 500 mg/kg, −1–28 days QD, 21 day, 3 hours after admin.
[15] = MT-SYK-03 500 mg/kg, −1–28 days QD, 28 day, 1 hour after admin.
[16] = MT-SYK-03 500 mg/kg, −1–28 days QD, 28 day, 3 hours after admin.

Compound: COc1cc(Nc2ncnc(Nc3cc4c(cn3)NC(=O)C(C)(C)O4)n2)cc(OC)c1OC [MT-SYK-03]
- hind paws grip strength [1]: 76.5 ± 4.5 & % from the initial one
- mechanical allodynia pain threshold [1]: 107.7±12.8 & % from the initial one
- mechanical hyperalgesia [1]: 74.4 ± 3.3 &# % from the initial one
- hind paws grip strength [2]: 72.69 ± 9.18 % from the initial one
- mechanical allodynia pain threshold [2]: 95.5±4.7 & % from the initial one
- mechanical hyperalgesia [2]: 80.5 ± 10.3 % from the initial one
- hind paws grip strength [3]: 90.5 ± 14.0 % from the initial one
- mechanical allodynia pain threshold [3]: 135.8±27.6 & % from the initial one
- mechanical hyperalgesia [3]: 65.1 ± 7.4 & % from the initial one
- hind paws grip strength [4]: 88.6 ± 18.5 % from the initial one
- mechanical allodynia pain threshold [4]: 110.3±16.3 % from the initial one
- mechanical hyperalgesia [4]: 67.38 ± 9.74 & % from the initial one
- hind paws grip strength [5]: 68.2 ± 11.3 % from the initial one
- mechanical allodynia pain threshold [5]: 75.7±3.6 % from the initial one
- mechanical hyperalgesia [5]: 51.1 ± 5.4 & % from the initial one
- hind paws grip strength [6]: 78.6 ± 12.1 % from the initial one
- mechanical allodynia pain threshold [6]: 82.7±12.8 % from the initial one
- mechanical hyperalgesia [6]: 77.5 ± 6.9 & % from the initial one
- hind paws grip strength [7]: 67.7 ± 7.9 & % from the initial one
- mechanical allodynia pain threshold [7]: 74.5±13.9 % from the initial one
- mechanical hyperalgesia [7]: 56 ± 7.2 & % from the initial one
- hind paws grip strength [8]: 68.23 ± 6.84 % from the initial one
- mechanical allodynia pain threshold [8]: 78.9±6.8 % from the initial one
- mechanical hyperalgesia [8]: 58.5 ± 7.1 & % from the initial one
- hind paws grip strength [9]: 82.8 ± 9.5 % from the initial one
- mechanical allodynia pain threshold [9]: 198.4±40.1 & % from the initial one
- mechanical hyperalgesia [9]: 75 ± 6.1 & % from the initial one
- hind paws grip strength [10]: 79.8 ± 4.3 % from the initial one
- mechanical allodynia pain threshold [10]: 161.1±30.5 & % from the initial one
- mechanical hyperalgesia [10]: 78.02 ± 9.37 % from the initial one
- hind paws grip strength [11]: 62.8 ± 9.9 % from the initial one
- mechanical allodynia pain threshold [11]: 113.9±9.7 & % from the initial one
- mechanical hyperalgesia [11]: 53.8 ± 4.4 & % from the initial one
- hind paws grip strength [12]: 70.3 ± 7.0 & % from the initial one
- mechanical allodynia pain threshold [12]: 111.1±17.7 & % from the initial one
- mechanical hyperalgesia [12]: 52.5 ± 3.3 & % from the initial one
- hind paws grip strength [13]: 89.6 ± 8.7 % from the initial one
- mechanical allodynia pain threshold [13]: 105.8±13 & % from the initial one
- mechanical hyperalgesia [13]: 75.4 ± 6.4 % from the initial one
- hind paws grip strength [14]: 76.56 ± 4.83 % from the initial one
- mechanical allodynia pain threshold [14]: 98.1±5.7 & % from the initial one
- mechanical hyperalgesia [14]: 64.7 ± 4.3 & % from the initial one
- hind paws grip strength [15]: 86.3 ± 8.3 % from the initial one
- mechanical allodynia pain threshold [15]: 106.7±12 & % from the initial one
- mechanical hyperalgesia [15]: 53.5 ± 3.8 & % from the initial one
- hind paws grip strength [16]: 82.3 ± 12.7 % from the initial one
- mechanical allodynia pain threshold [16]: 99.2±5.5 & % from the initial one
- mechanical hyperalgesia [16]: 61.04 ± 1.81 & % from the initial one
- hind paws grip strength (rat MIA, days 14, 21, 28): trend toward restoration of hind paws grip strength
- Mechanical hyperalgesia pain threshold (rat MIA, prophylactic administration, 100 and 500 mg/kg): statistically significant increase of pain thresholds for both doses from day 14
- mechanical allodynia pain threshold (rat MIA, prophylactic treatment regimen): on day 14 pain threshold was elevated in all measurements
- Mechanical hyperalgesia pain threshold (rat MIA, therapeutic treatment regimen): statistically significant improvement appeared only on day 28 for higher dose
- mechanical allodynia pain threshold (rat MIA, treatment regimen): statistically significant on day 28 and only in the higher dose

Source: publication PMC8632988, “Inhibition of SYK and cSrc kinases can protect bone and cartilage in preclinical models of osteoarthritis and rheumatoid arthritis” (Scientific Reports, 2021)
